System: 922993-354-T-J3-PDC complex spheroid viability
Assay: Anticancer human tumor 922993-354-T-J3-PDC patient-derived endometrial carcinoma cell line growth inhibition [POLQ]
Conditions: for IC50: curve of first compound; for viability, T/C: stronger effect = lower value
In short: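 PDC + HUVEC + MSC complex spheroids; POLQ inhibitors ± partner drugs; top conc. at/near clinical Cmax, else 10 microM (SN-38 1 microM), half-log dilutions; 37 degrees C, 5% CO2.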

[1] = second compound 0.0316 µM, first compound 0.0316 µM
[2] = second compound 0.0316 µM, first compound 0.1 µM
[3] = second compound 0.0316 µM, first compound 0.316 µM
[4] = second compound 0.0316 µM, first compound 1 µM
[5] = second compound 0.0316 µM, first compound 3.16 µM
[6] = second compound 0.0316 µM, first compound 10 µM
[7] = second compound 0.1 µM, first compound 0.0316 µM
[8] = second compound 0.1 µM, first compound 0.1 µM
[9] = second compound 0.1 µM, first compound 0.316 µM
[10] = second compound 0.1 µM, first compound 1 µM
[11] = second compound 0.1 µM, first compound 3.16 µM
[12] = second compound 0.1 µM, first compound 10 µM
[13] = second compound 0.316 µM, first compound 0.0316 µM
[14] = second compound 0.316 µM, first compound 0.1 µM
[15] = second compound 0.316 µM, first compound 0.316 µM
[16] = second compound 0.316 µM, first compound 1 µM
[17] = second compound 0.316 µM, first compound 3.16 µM
[18] = second compound 0.316 µM, first compound 10 µM
[19] = second compound 1 µM, first compound 0.0316 µM
[20] = second compound 1 µM, first compound 0.1 µM
[21] = second compound 1 µM, first compound 0.316 µM
[22] = second compound 1 µM, first compound 1 µM
[23] = second compound 1 µM, first compound 3.16 µM
[24] = second compound 1 µM, first compound 10 µM
[25] = second compound 3.16 µM, first compound 0.0316 µM
[26] = second compound 3.16 µM, first compound 0.1 µM
[27] = second compound 3.16 µM, first compound 0.316 µM
[28] = second compound 3.16 µM, first compound 1 µM
[29] = second compound 3.16 µM, first compound 3.16 µM
[30] = second compound 3.16 µM, first compound 10 µM
[31] = second compound 10 µM, first compound 0.0316 µM
[32] = second compound 10 µM, first compound 0.1 µM
[33] = second compound 10 µM, first compound 0.316 µM
[34] = second compound 10 µM, first compound 1 µM
[35] = second compound 10 µM, first compound 3.16 µM
[36] = second compound 10 µM, first compound 10 µM
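Also: spheroids exposed to the agents for one week.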
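For viability, T/C in this document: 100% = DMSO vehicle control wells.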

CC1COCCN1c1cc(C2(O)CC3CCC(C2)O3)c2cnn(-c3ccn[nH]3)c2n1 (stereo unspecified) + COC1C(OC(N)=O)C(O)C(Oc2ccc3c(O)c(NC(=O)c4ccc(O)c(CC=C(C)C)c4)c(=O)oc3c2C)OC1(C)C
IC50 (second compound 0.0316 µM): 0.337 µM
IC50 (second compound 0.1 µM): 0.371 µM
IC50 (second compound 0.316 µM): 0.361 µM
IC50 (second compound 1 µM): 0.383 µM
IC50 (second compound 3.16 µM): 0.361 µM
IC50 (second compound 10 µM): 0.393 µM
viability, T/C [1]: 101%
viability, T/C [2]: 80.6%
viability, T/C [3]: 54.1%
viability, T/C [4]: 23.1%
viability, T/C [5]: 8.69%
viability, T/C [6]: 11.8%
viability, T/C [7]: 107%
viability, T/C [8]: 68.5%
viability, T/C [9]: 66.4%
viability, T/C [10]: 26.7%
viability, T/C [11]: 10.4%
viability, T/C [12]: 10.7%
viability, T/C [13]: 96%
viability, T/C [14]: 89.6%
viability, T/C [15]: 53.3%
viability, T/C [16]: 20.5%
viability, T/C [17]: 9.11%
viability, T/C [18]: 10.8%
viability, T/C [19]: 99.5%
viability, T/C [20]: 93.7%
viability, T/C [21]: 55.1%
viability, T/C [22]: 21.1%
viability, T/C [23]: 8.57%
viability, T/C [24]: 11.2%
viability, T/C [25]: 100%
viability, T/C [26]: 84.9%
viability, T/C [27]: 54.1%
viability, T/C [28]: 23.2%
viability, T/C [29]: 10.7%
viability, T/C [30]: 9.88%
viability, T/C [31]: 93.8%
viability, T/C [32]: 76.1%
viability, T/C [33]: 60.5%
viability, T/C [34]: 17.4%
viability, T/C [35]: 10.4%
viability, T/C [36]: 10.3%

O=C(Nc1ccc(O)c(NS(=O)(=O)c2ccc(F)cc2)c1)c1ccc(-c2ccccc2)cc1 + COC1C(OC(N)=O)C(O)C(Oc2ccc3c(O)c(NC(=O)c4ccc(O)c(CC=C(C)C)c4)c(=O)oc3c2C)OC1(C)C
IC50 (second compound 0.0316 µM): > 10 µM
IC50 (second compound 0.1 µM): > 10 µM
IC50 (second compound 0.316 µM): > 10 µM
IC50 (second compound 1 µM): > 10 µM
IC50 (second compound 3.16 µM): > 10 µM
IC50 (second compound 10 µM): > 10 µM
viability, T/C [1]: 107%
viability, T/C [2]: 91.7%
viability, T/C [3]: 95.1%
viability, T/C [4]: 98.3%
viability, T/C [5]: 99.8%
viability, T/C [6]: 95.6%
viability, T/C [7]: 116%
viability, T/C [8]: 97.1%
viability, T/C [9]: 101%
viability, T/C [10]: 99.3%
viability, T/C [11]: 84%
viability, T/C [12]: 102%
viability, T/C [13]: 104%
viability, T/C [14]: 100%
viability, T/C [15]: 97.5%
viability, T/C [16]: 101%
viability, T/C [17]: 93.3%
viability, T/C [18]: 101%
viability, T/C [19]: 104%
viability, T/C [20]: 97.4%
viability, T/C [21]: 97.6%
viability, T/C [22]: 96.4%
viability, T/C [23]: 101%
viability, T/C [24]: 94.7%
viability, T/C [25]: 93.9%
viability, T/C [26]: 92.2%
viability, T/C [27]: 93.7%
viability, T/C [28]: 90.8%
viability, T/C [29]: 107%
viability, T/C [30]: 94.2%
viability, T/C [31]: 86.2%
viability, T/C [32]: 81.1%
viability, T/C [33]: 97.8%
viability, T/C [34]: 73.7%
viability, T/C [35]: 89.3%
viability, T/C [36]: 96.5%

COc1cccc2c1C(=O)c1c(O)c3c(c(O)c1C2=O)CC(O)(C(=O)CO)CC3OC1CC(N)C(O)C(C)O1 (stereo unspecified) + Cc1cccc(N(C)C(=O)C2C(O)CCN2c2nc(C)cc(C(F)(F)F)c2C#N)c1
IC50 (second compound 0.0316 µM): 1.27 µM
IC50 (second compound 0.1 µM): 1.21 µM
IC50 (second compound 0.316 µM): 0.947 µM
IC50 (second compound 1 µM): 1.12 µM
IC50 (second compound 3.16 µM): 0.555 µM
IC50 (second compound 10 µM): 0.186 µM
viability, T/C [1]: 96.3%
viability, T/C [2]: 88%
viability, T/C [3]: 81.4%
viability, T/C [4]: 51.8%
viability, T/C [5]: 32.3%
viability, T/C [6]: 11.7%
viability, T/C [7]: 101%
viability, T/C [8]: 97.2%
viability, T/C [9]: 81.6%
viability, T/C [10]: 55.1%
viability, T/C [11]: 26.4%
viability, T/C [12]: 11.6%
viability, T/C [13]: 103%
viability, T/C [14]: 92.7%
viability, T/C [15]: 84.9%
viability, T/C [16]: 45%
viability, T/C [17]: 27.2%
viability, T/C [18]: 12.9%
viability, T/C [19]: 105%
viability, T/C [20]: 95.9%
viability, T/C [21]: 72.6%
viability, T/C [22]: 53.6%
viability, T/C [23]: 28.8%
viability, T/C [24]: 10.3%
viability, T/C [25]: 88.2%
viability, T/C [26]: 93.3%
viability, T/C [27]: 60.3%
viability, T/C [28]: 35.8%
viability, T/C [29]: 17.7%
viability, T/C [30]: 7.76%
viability, T/C [31]: 94.3%
viability, T/C [32]: 65.2%
viability, T/C [33]: 38.3%
viability, T/C [34]: 16.5%
viability, T/C [35]: 11.8%
viability, T/C [36]: 11.6%
